Converted amounts (≈) assume the structure as drawn.
Tested on: Plasmodium falciparum
Test: Antimalarial activity against chloroquine, mefloquine, pyrimethamine and atovaquone-resistant Plasmodium falciparum TM90-C2B infected in human A+ erythrocytes after 72 hrs by SYBR Green I assay
Assay type: functional, organism-based
Conditions: not given
Compound `Cc1c(-c2ccccc2)c(=O)c2cc(Cl)ccc2n1C` has an EC50 greater than 8.8 µM.
Compound `COc1c(-c2ccccc2)c(C)nc2ccc(Cl)cc12` has an EC50 greater than 8.8 µM.
`COc1cc2[nH]c(C)c(CC(C)C)c(=O)c2cc1Cl` showed an EC50 of 0.0633 µM.
`COc1ccc2c(=O)cc(C)[nH]c2c1` showed an EC50 of 12.5 µM.
In the case of `Cc1cc(=O)c2ccccc2[nH]1`, the EC50 is reported as greater than 62.8 µM.
Work on `Cc1[nH]c2ccccc2c(=O)c1C1CCCCC1` yielded an EC50 of 2.23 µM.
`Cc1[nH]c2ccccc2c(=O)c1/C=C/c1ccccc1` gave an EC50 greater than 9.08 µM.
In the case of `COc1ccc2[nH]c(C)c(Br)c(=O)c2c1`, the EC50 is reported as 1.17 µM.
`Cc1[nH]c2ccc(F)cc2c(=O)c1Br` showed an EC50 of 0.125 µM.
`CCCCC#Cc1c(C)[nH]c2ccc(OC)cc2c1=O` gave an EC50 greater than 9.21 µM.
With `CCCCC#Cc1c(C)[nH]c2ccccc2c1=O` the EC50 was greater than 10.4 µM.
In the case of `CCCCC#Cc1c(C)[nH]c2ccc(Cl)cc2c1=O`, the EC50 is reported as 43.1 µM.
`COc1ccc2[nH]c(C)c(-c3ccccc3)c(=O)c2c1` showed an EC50 greater than 9.42 µM.
Compound `COc1ccc2c(=O)c(-c3ccccc3)c(C)[nH]c2c1` has an EC50 of 0.269 µM.
`COc1cccc2c(=O)c(-c3ccccc3)c(C)[nH]c12` gave an EC50 of 1.67 µM.
Work on `Cc1[nH]c2cc(Cl)ccc2c(=O)c1-c1ccccc1` yielded an EC50 of 1.86 µM.
Work on `Cc1[nH]c2cc(Cl)c(Cl)cc2c(=O)c1-c1ccccc1` yielded an EC50 of 0.35 µM.
With `Cc1[nH]c2c(Cl)c(Cl)ccc2c(=O)c1-c1ccccc1` the EC50 was greater than 8.22 µM.
Work on `COc1ccc2c(c1)c(=O)c(Cc1ccccc1)c(C)n2C` yielded an EC50 of 8.06 µM.

Tested on: Plasmodium falciparum
Test: Antimalarial activity against chloroquine and pyrimethamine-resistant Plasmodium falciparum W2 infected in human A+ erythrocytes after 72 hrs by SYBR Green I assay
Assay type: functional, organism-based
Conditions: W2, 72 h
`Cc1c(-c2ccccc2)c(=O)c2cc(Cl)ccc2n1C` gave an EC50 greater than 8.8 µM.
`COc1c(-c2ccccc2)c(C)nc2ccc(Cl)cc12` showed an EC50 greater than 8.8 µM.
With `COc1cc2[nH]c(C)c(CC(C)C)c(=O)c2cc1Cl` the EC50 was 0.0864 µM.
With `COc1ccc2c(=O)cc(C)[nH]c2c1` the EC50 was greater than 13.2 µM.
Work on `Cc1cc(=O)c2ccccc2[nH]1` yielded an EC50 greater than 44.7 µM.
With `Cc1[nH]c2ccccc2c(=O)c1C1CCCCC1` the EC50 was 0.591 µM.
`Cc1[nH]c2ccccc2c(=O)c1/C=C/c1ccccc1` gave an EC50 greater than 9.08 µM.
With `COc1ccc2[nH]c(C)c(Br)c(=O)c2c1` the EC50 was 3 µM.
`Cc1[nH]c2ccc(F)cc2c(=O)c1Br` showed an EC50 of 0.929 µM.
`CCCCC#Cc1c(C)[nH]c2ccc(OC)cc2c1=O` showed an EC50 greater than 9.21 µM.
`CCCCC#Cc1c(C)[nH]c2ccccc2c1=O` gave an EC50 of 8.29 µM.
For `CCCCC#Cc1c(C)[nH]c2ccc(Cl)cc2c1=O`, the EC50 was greater than 9.06 µM.
With `COc1ccc2[nH]c(C)c(-c3ccccc3)c(=O)c2c1` the EC50 was greater than 9.42 µM.
Work on `COc1ccc2c(=O)c(-c3ccccc3)c(C)[nH]c2c1` yielded an EC50 of 0.287 µM.
Compound `COc1cccc2c(=O)c(-c3ccccc3)c(C)[nH]c12` has an EC50 of 2.06 µM.
In the case of `Cc1[nH]c2cc(Cl)ccc2c(=O)c1-c1ccccc1`, the EC50 is reported as 0.216 µM.
Work on `Cc1[nH]c2cc(Cl)c(Cl)cc2c(=O)c1-c1ccccc1` yielded an EC50 of 0.569 µM.
`Cc1[nH]c2c(Cl)c(Cl)ccc2c(=O)c1-c1ccccc1` showed an EC50 greater than 8.22 µM.
Work on `COc1ccc2c(c1)c(=O)c(Cc1ccccc1)c(C)n2C` yielded an EC50 greater than 8.52 µM.

Tested on: J774
Test: Cytotoxicity against mouse J774 cells
Assay type: cell-based
Conditions: not given
In the case of `COc1cc2[nH]c(C)c(CC(C)C)c(=O)c2cc1Cl`, the EC50 is reported as greater than 35.7 µM.
Compound `COc1ccc2c(=O)cc(C)[nH]c2c1` has an EC50 greater than 52.8 µM.
For `Cc1cc(=O)c2ccccc2[nH]1`, the EC50 was greater than 62.8 µM.
Compound `Cc1[nH]c2ccccc2c(=O)c1C1CCCCC1` has an EC50 greater than 41.4 µM.
Compound `Cc1[nH]c2ccccc2c(=O)c1/C=C/c1ccccc1` has an EC50 greater than 36.3 µM.
For `COc1ccc2[nH]c(C)c(Br)c(=O)c2c1`, the EC50 was greater than 37.3 µM.
Work on `Cc1[nH]c2ccc(F)cc2c(=O)c1Br` yielded an EC50 greater than 39.1 µM.
Compound `CCCCC#Cc1c(C)[nH]c2ccc(OC)cc2c1=O` has an EC50 greater than 36.8 µM.
With `CCCCC#Cc1c(C)[nH]c2ccccc2c1=O` the EC50 was 8.9 µM.
With `CCCCC#Cc1c(C)[nH]c2ccc(Cl)cc2c1=O` the EC50 was greater than 36.3 µM.
`COc1ccc2[nH]c(C)c(-c3ccccc3)c(=O)c2c1` gave an EC50 greater than 37.7 µM.
`COc1ccc2c(=O)c(-c3ccccc3)c(C)[nH]c2c1` gave an EC50 greater than 37.7 µM.
Compound `COc1cccc2c(=O)c(-c3ccccc3)c(C)[nH]c12` has an EC50 greater than 37.7 µM.
For `Cc1[nH]c2cc(Cl)ccc2c(=O)c1-c1ccccc1`, the EC50 was greater than 37.1 µM.
Compound `Cc1[nH]c2cc(Cl)c(Cl)cc2c(=O)c1-c1ccccc1` has an EC50 greater than 32.9 µM.
With `Cc1[nH]c2c(Cl)c(Cl)ccc2c(=O)c1-c1ccccc1` the EC50 was greater than 32.9 µM.

Tested on: not listed separately
Test: Lipophilicity, log D of the compound at pH 7.4
Conditions: buffer
With `COc1cc2[nH]c(C)c(CC(C)C)c(=O)c2cc1Cl` the logD was 2.99.
`COc1ccc2c(=O)cc(C)[nH]c2c1` gave a logD of 1.2.
`Cc1[nH]c2ccccc2c(=O)c1C1CCCCC1` showed a logD of 2.45.
`Cc1[nH]c2ccccc2c(=O)c1/C=C/c1ccccc1` showed a logD of 4.4.
Compound `COc1ccc2[nH]c(C)c(Br)c(=O)c2c1` has a logD of 1.62.
In the case of `Cc1[nH]c2ccc(F)cc2c(=O)c1Br`, the logD is reported as 1.61.
For `CCCCC#Cc1c(C)[nH]c2ccc(OC)cc2c1=O`, the logD was 5.25.
For `CCCCC#Cc1c(C)[nH]c2ccccc2c1=O`, the logD was 5.44.
`CCCCC#Cc1c(C)[nH]c2ccc(Cl)cc2c1=O` showed a logD of 2.98.
`COc1ccc2[nH]c(C)c(-c3ccccc3)c(=O)c2c1` gave a logD of 1.61.
Compound `COc1ccc2c(=O)c(-c3ccccc3)c(C)[nH]c2c1` has a logD of 1.56.
For `COc1cccc2c(=O)c(-c3ccccc3)c(C)[nH]c12`, the logD was 1.73.
For `Cc1[nH]c2cc(Cl)ccc2c(=O)c1-c1ccccc1`, the logD was 2.18.
Work on `Cc1[nH]c2cc(Cl)c(Cl)cc2c(=O)c1-c1ccccc1` yielded a logD of 3.05.
`Cc1[nH]c2c(Cl)c(Cl)ccc2c(=O)c1-c1ccccc1` showed a logD of 3.27.
For `COc1ccc2c(c1)c(=O)c(Cc1ccccc1)c(C)n2C`, the logD was 2.73.

Tested on: not listed separately
Test: Passive transcellular permeability of the compound at pH 7.4 by PAMPA
Assay type: ADME
Conditions: not given
Work on `CCCCC#Cc1c(C)[nH]c2ccc(OC)cc2c1=O` yielded a permeability of 2438.2 ×10⁻⁶ cm/s.
Work on `CCCCC#Cc1c(C)[nH]c2ccccc2c1=O` yielded a permeability of 2137.05 ×10⁻⁶ cm/s.

Same assay, conditions: read-out: permeability
Work on `COc1cc2[nH]c(C)c(CC(C)C)c(=O)c2cc1Cl` yielded a Papp of 368 ×10⁻⁶ cm/s.
`COc1ccc2c(=O)cc(C)[nH]c2c1` gave a Papp of 8.91 ×10⁻⁶ cm/s.
`Cc1cc(=O)c2ccccc2[nH]1` showed a Papp of 1.54 ×10⁻⁶ cm/s.
For `Cc1[nH]c2ccccc2c(=O)c1C1CCCCC1`, the Papp was 230 ×10⁻⁶ cm/s.
Compound `Cc1[nH]c2ccccc2c(=O)c1/C=C/c1ccccc1` has a Papp of 224 ×10⁻⁶ cm/s.
For `COc1ccc2[nH]c(C)c(Br)c(=O)c2c1`, the Papp was 16.7 ×10⁻⁶ cm/s.
In the case of `Cc1[nH]c2ccc(F)cc2c(=O)c1Br`, the Papp is reported as 18.3 ×10⁻⁶ cm/s.
`COc1ccc2[nH]c(C)c(-c3ccccc3)c(=O)c2c1` showed a Papp of 126 ×10⁻⁶ cm/s.
`COc1ccc2c(=O)c(-c3ccccc3)c(C)[nH]c2c1` gave a Papp of 9.89 ×10⁻⁶ cm/s.
`COc1cccc2c(=O)c(-c3ccccc3)c(C)[nH]c12` gave a Papp of 37 ×10⁻⁶ cm/s.
`Cc1[nH]c2c(Cl)c(Cl)ccc2c(=O)c1-c1ccccc1` gave a Papp of 197 ×10⁻⁶ cm/s.
`COc1ccc2c(c1)c(=O)c(Cc1ccccc1)c(C)n2C` gave a Papp of 268 ×10⁻⁶ cm/s.

Tested on: not listed separately
Test: Passive transcellular permeability of the compound at pH 4 by PAMPA
Assay type: ADME
Conditions: not given
In the case of `CCCCC#Cc1c(C)[nH]c2ccc(OC)cc2c1=O`, the permeability is reported as 1020.6 ×10⁻⁶ cm/s.

Same assay, conditions: read-out: permeability
Work on `COc1cc2[nH]c(C)c(CC(C)C)c(=O)c2cc1Cl` yielded a Papp of 496 ×10⁻⁶ cm/s.
Work on `Cc1cc(=O)c2ccccc2[nH]1` yielded a Papp of 1.56 ×10⁻⁶ cm/s.
`Cc1[nH]c2ccccc2c(=O)c1C1CCCCC1` showed a Papp of 260 ×10⁻⁶ cm/s.
`Cc1[nH]c2ccccc2c(=O)c1/C=C/c1ccccc1` gave a Papp of 222 ×10⁻⁶ cm/s.
For `Cc1[nH]c2ccc(F)cc2c(=O)c1Br`, the Papp was 16.2 ×10⁻⁶ cm/s.
`CCCCC#Cc1c(C)[nH]c2ccccc2c1=O` showed a Papp of 500 ×10⁻⁶ cm/s.
Compound `CCCCC#Cc1c(C)[nH]c2ccc(Cl)cc2c1=O` has a Papp of 171 ×10⁻⁶ cm/s.
Work on `COc1cccc2c(=O)c(-c3ccccc3)c(C)[nH]c12` yielded a Papp of 33.9 ×10⁻⁶ cm/s.
Compound `Cc1[nH]c2cc(Cl)ccc2c(=O)c1-c1ccccc1` has a Papp of 37.8 ×10⁻⁶ cm/s.
`Cc1[nH]c2c(Cl)c(Cl)ccc2c(=O)c1-c1ccccc1` showed a Papp of 189 ×10⁻⁶ cm/s.
`COc1ccc2c(c1)c(=O)c(Cc1ccccc1)c(C)n2C` gave a Papp of 295 ×10⁻⁶ cm/s.

Tested on: not listed separately
Test: in vitro
Conditions: mouse, J774 cells
Description: Cytotoxicity index, ratio of EC50 for mice (Mus musculus) J774 cells to EC50 for chloroquine, mefloquine, pyrimethamine and atovaquone-resistant Plasmodium falciparum TM90-C2B
For `COc1ccc2c(=O)cc(C)[nH]c2c1`, the selectivity ratio was greater than 4.2.
`Cc1[nH]c2ccccc2c(=O)c1C1CCCCC1` gave a selectivity ratio greater than 18.6.
For `Cc1[nH]c2ccccc2c(=O)c1/C=C/c1ccccc1`, the selectivity ratio was greater than 4.
`COc1ccc2[nH]c(C)c(Br)c(=O)c2c1` showed a selectivity ratio greater than 32.
In the case of `Cc1[nH]c2ccc(F)cc2c(=O)c1Br`, the selectivity ratio is reported as greater than 313.
In the case of `CCCCC#Cc1c(C)[nH]c2ccc(OC)cc2c1=O`, the selectivity ratio is reported as greater than 4.
In the case of `CCCCC#Cc1c(C)[nH]c2ccc(Cl)cc2c1=O`, the selectivity ratio is reported as greater than 0.84.
For `COc1ccc2[nH]c(C)c(-c3ccccc3)c(=O)c2c1`, the selectivity ratio was greater than 4.
Compound `COc1ccc2c(=O)c(-c3ccccc3)c(C)[nH]c2c1` has a selectivity ratio greater than 140.
Work on `COc1cccc2c(=O)c(-c3ccccc3)c(C)[nH]c12` yielded a selectivity ratio greater than 22.6.
With `Cc1[nH]c2cc(Cl)ccc2c(=O)c1-c1ccccc1` the selectivity ratio was greater than 19.9.
With `Cc1[nH]c2cc(Cl)c(Cl)cc2c(=O)c1-c1ccccc1` the selectivity ratio was greater than 93.3.

Tested on: not listed separately
Test: physchem
Conditions: aqueous, pH 7.4
Description: Aqueous solubility of the compound at pH 7.4 by HPLC analysis
With `Cc1[nH]c2ccccc2c(=O)c1C1CCCCC1` the solubility was 10 µM (≈ 2.41 µg/mL).
`COc1ccc2[nH]c(C)c(Br)c(=O)c2c1` gave a solubility greater than 20 µM.
Work on `CCCCC#Cc1c(C)[nH]c2ccc(Cl)cc2c1=O` yielded a solubility of 2 µM (≈ 0.548 µg/mL).
With `Cc1[nH]c2cc(Cl)ccc2c(=O)c1-c1ccccc1` the solubility was less than 2 µM.
`Cc1[nH]c2cc(Cl)c(Cl)cc2c(=O)c1-c1ccccc1` gave a solubility of less than 2 µM.
In the case of `COc1ccc2c(c1)c(=O)c(Cc1ccccc1)c(C)n2C`, the solubility is reported as 10 µM (≈ 2.93 µg/mL).
